Measurements from patent US20160115540A1, “PRODRUGS AND DRUGS” (Biogen MA Inc., priority 2013, published 2016).
Where a name gives a salt, the structure may show the parent alone.

Test system: kidney
Experiment: Transcriptional profiling on Affymetrix GeneChips, single dose, naïve mice: kidney
Type: in vivo, C57BL/6 mice
Details: 100MMF-vs-Veh
Description: Treated mice were sacrificed at 2, 7, or 12 hours. Tissues (liver, spleen, kidney, jejunum, cortex, hippocampus, striatum and whole blood) were collected and analyzed by transcriptional profiling on mouse Affymetrix GeneChips.
Tissues (liver, spleen, kidney, jejunum, cortex, hippocampus, striatum and whole blood) were collected and analyzed by transcriptional profiling on mouse Affymetrix GeneChips.
Animals were exposed to CO2 and whole blood collected via cardiac puncture. Two 100 μl aliquots of whole blood were collected in 1.5 mL microcentrifuge tubes and snap frozen in liquid nitrogen. Peripheral (liver, spleen, kidney and jejunum) and CNS brain (cerebellum, hippocampus, striatum and cortex) tissues were harvested and snap frozen in liquid nitrogen, with special care taken to collect tissues of similar size and from the same location. All samples were stored at −80° C. until RNA extraction was conducted.
For RNA preparation, frozen tissues were placed in 2 mL RNAse-free 96-well blocks with 1.5 mL QIAzol Lysis Reagent (QIAgen) and a 3.2 mm stainless steel bead (BioSpec Products, Bartlesville, Okla.). Tissues were disrupted for four cycles of 45 seconds in a Mini-Beadbeater (Biospec Products). RNA was extracted in chloroform and the aqueous phase was mixed with an equal volume of 70% ethanol. Extracted RNA was applied to RNeasy 96 plates and purified by the spin method according to the manufacturer's protocol (RNeasy 96 Universal Tissue Protocol, QIAgen, Hilden Germany).
Automated sample amplifications and biotin labelings were carried out using the NuGEN Ovation RNA Amplification system V2 (Cat #3100), Ovation WB reagent (Cat #1300) and Encore Biotin module (Cat #4200) (NuGEN Technologies, Inc, San Carlos, Calif.) according to manufacturer's recommendations using an Arrayplex automated liquid handler (Beckman Coulter, Indianapolis, Ind.). Two micrograms of biotin labeled sscDNA probe were hybridized to Affymetrix GeneChip Affymetrix HT_MG-430_PM plate arrays with modified conditions as described in Allaire et al. Washing and staining of the hybridized arrays were completed as described in the GeneChip Expression analysis technical manual for HT plate arrays using the Genechip® Array Station (Affymetrix, Santa Clara, Calif.) with modifications as described in Allaire et al. The processed GeneChip® plate arrays were scanned using GeneTitan scanner (Affymetrix, Santa Clara, Calif.).
Affymetrix scans were subject to quality control (QC) measures. These tests included a visual inspection of the distribution of raw signal intensities and an assessment of RNA degradation, relative log expression (RLE), and normalized unsealed standard error (NUSE). All sample scans that passed these QC metrics were included in the analysis.
All CEL files were subjected to GC-content-based Robust Multi-array Average (GCRMA) normalization (version 2.20.0) (Irizarry R A, et al. Nucleic Acids Res 2003; 31:e15; Li C, et al. Genome Biol 2001; 2:[…]0032). Expression levels were log (base 2) transformed.
All calculations and analyses were carried out using R (version 2.11.1) and Bioconductor computational tools (Gentleman R. Springer Science+Business Media 2005).

## COC(=O)/C=C/C(=O)O [MMF, monomethyl fumarate]
7 h
  FC Gsr (1421816_PM_at): 1.83
  FC Gsta3 (1423436_PM_at): 1.99
  FC Gsta3 (1423437_PM_at): 2.95
  FC Gsta4 1416368_PM_at: 1.85
  FC Havcr1 1434716_PM_at: 3.22
  FC Hfe 1450702_PM_at: 1.57
  FC Hist1h2be 1440330_PM_at: 1.98
  FC Hist2h3c1 1442051_PM_at: 1.65
  FC Hmox1 1448239_PM_at: 7.48
  FC Hsp90aa1 1426645_PM_at: 1.50
  FC Ido2 1425778_PM_at: −1.52
  FC Ikbkg 1421209_PM_s_at: 1.77
  FC Ikbkg 1435646_PM_at: 1.80
  FC Ikbkg 1454690_PM_at: 1.61
  FC Il18 1417932_PM_at: −1.52
  FC Kif20b 1439695_PM_a_at: −2.61
  FC Lcp1 1415983_PM_at: 1.59
  FC Lcp1 1448160_PM_at: 1.56
  FC Lpar2 1442291_PM_at: 1.84
  FC Lrp8 (1440882_PM_at): 2.19
  FC Mctp2 1457707_PM_at: 1.54
  FC Mfsd2a 1428223_PM_at: −3.38
  FC Mt1 1422557_PM_s_at: 1.89
  FC Mt2 1428942_PM_at: 2.71
  FC Mthfd2 1419253_PM_at: 1.89
  FC Mthfd2 1419254_PM_at: 1.68
  FC Napsa 1430744_PM_at: −1.79
  FC Ndrg1 1423413_PM_at: 1.52
  FC Ndrg1 1450977_PM_s_at: 1.54
  FC Nmral1 1430530_PM_s_at: −1.52
  FC Nqo1 (1423627_PM_at): 1.96
  FC Nrg1 1456524_PM_at: 1.81
  FC Nudt11 1426887_PM_at: 1.62
  FC Pank1 1457110_PM_at: −1.79
  FC Pank2 1452733_PM_at: −1.94
  FC Pard3 1434775_PM_at: 1.53
  FC Pfkfb4 1456888_PM_at: 1.69
  FC Pgd 1423706_PM_a_at: 2.21
  FC Pgd 1438627_PM_x_at: 1.78
  FC Pgd (1436771_PM_x_at): 1.87
  FC Pgd (1437380_PM_x_at): 1.87
  FC Pir (1429001_PM_at): 2.63
  FC Ppm1e 1434990_PM_at: −1.53
  FC Rab38 1417700_PM_at: −1.57
  FC Rassf6 1429262_PM_at: 1.65
  FC Rdh10 1460632_PM_at: 1.68
  FC Rhof 1455902_PM_x_at: 1.66
  FC Rnf24 1436101_PM_at: −2.03
  FC Rock2 1451041_PM_at: 1.60
  FC Rundc3b 1434456_PM_at: 1.54
  FC Sema3c 1420696_PM_at: 1.66
  FC Slc7a1 1454992_PM_at: 1.62
  FC Slc9a8 1454865_PM_at: −1.68
  FC Slc16a6 1417884_PM_at: 1.55
  FC Slc20a1 1448568_PM_a_at: 1.70
  FC Slc40a1 1448566_PM_at: 1.51
  FC Slc48a1 1450410_PM_a_at: 1.58
  FC Smcp 1418358_PM_at: −1.96
  FC Sphk2 1426230_PM_at: −1.54
  FC Sqstm1 1450957_PM_a_at: 1.62
  FC Srxn1 (1419942_PM_at): 2.45
  FC Srxn1 (1425351_PM_at): 2.92
  FC Srxn1 (1426875_PM_s_at): 2.29
  FC Srxn1 (1451680_PM_at): 2.68
  FC Syn3 1435311_PM_s_at: −1.68
  FC Tardbp 1423723_PM_s_at: 1.62
  FC Tcte2 1425009_PM_at: −1.61
  FC Tiam2 1423186_PM_at: 2.27
  FC Tmem86a 1428758_PM_at: −1.56
  FC Tnfrsf12a 1418571_PM_at: 2.40
  FC Tnfrsf12a 1418572_PM_x_at: 2.45
  FC Trim7 1425743_PM_at: −1.59
  FC Trim7 1439352_PM_at: −1.55
  FC Tubb2a 1427347_PM_s_at: 1.52
  FC Txnrd1 1421529_PM_a_at: 1.72
  FC Txnrd1 (1424486_PM_a_at): 3.08
  FC Txnrd1 (1424487_PM_x_at): 2.37
  FC Upp2 1424969_PM_s_at: −3.63
  FC Upp2 1451548_PM_at: −4.00
  FC Uxs1 1426275_PM_a_at: 1.50
  FC Vwa1 1426399_PM_at: −1.69
  FC Wdr90 1426767_PM_at: −1.58
  FC Wnt5a 1436791_PM_at: 1.69
  FC Wnt5a 1448818_PM_at: 1.81
12 h
  FC Acot1 /// Acot2 1422997_PM_s_at: 1.51
  FC Aldh1a1 1416468_PM_at: 2.21
  FC Aldh1a7 (1418601_PM_at): 3.02
  FC Aox1 (1419435_PM_at): 2.23
  FC Arg2 1418847_PM_at: 2.70
  FC Atp11a 1421167_PM_at: −1.62
  FC C1qtnf3 1422606_PM_at: −1.57
  FC Cyp51 1422533_PM_at: −1.95
  FC Cyp51 1422534_PM_at: −1.79
  FC Egln3 1418649_PM_at: 1.71
  FC G6pd2 /// G6pdx 1422327_PM_s_at: 1.91
  FC Gbe1 1420654_PM_a_at: 1.51
  FC Gdf15 1418949_PM_at: 2.01
  FC Gm3776 /// Gsta1 /// Gsta2 1421041_PM_s_at: 1.68
  FC Gpr19 1421756_PM_a_at: 1.50
  FC Gsta2 (1421040_PM_a_at): 1.61
  FC Gsta3 (1423436_PM_at): 1.95
  FC Gsta3 (1423437_PM_at): 2.85
  FC Gsta4 1416368_PM_at: 1.95
